The results in this text go back to ChEMBL document CHEMBL3352111, “Cytotoxic activity of butane type of 1,7-seco-2,7'-cyclolignanes and apoptosis induction by Caspase 9 and 3” (Bioorg Med Chem Lett, 2014).

The test system of experiment [1] is HeLa. In words: Cytotoxicity against human HeLa cells after 48 hrs by WST8 assay. It is filed as functional, cell-based. A general note: Formazan colour is commonly taken as a measure of viable cells.
Experiment [2] has as its system HeLa. The experiment can be described thus: Cytotoxicity against human HeLa cells assessed as inhibition of cell growth at 100 uM after 48 hrs by WST8 assay. It is filed as functional. The settings on record: read-out: GI.
A short description of experiment [3]: Cytotoxicity against human HL60 cells after 48 hrs by WST8 assay. It is filed as functional, cell-based. To be noted: HL-60, 48 h.
The nature of experiment [4]: Cytotoxicity against human HL60 cells assessed as inhibition of cell growth at 100 uM after 48 hrs by WST8 assay. It is filed as functional. To be noted: HL-60, 48 h, read-out: GI.
The test system of experiment [5] is HL-60. The experiment can be described thus: Induction of apoptosis in human HL60 cells assessed as reduction in pro-caspase-9 level at 8 uM after 24 hrs by Western blotting method. It is filed as functional, cell-based. On the technique in general: Immunoblotting shows a protein as a band on a membrane.
For experiment [6], the system named is HL-60. In words: Induction of apoptosis in human HL60 cells assessed as early apoptosis level at 8 uM after 24 hrs by Annexin V-PE and 7-AAD staining based flow cytometry (reference value: 3.3%). It is filed as functional.
Experiment [7] has as its system HL-60. The experiment can be described thus: Induction of apoptosis in human HL60 cells assessed as increase in caspase-9 level at 8 uM after 12 hrs by Western blotting method. It is filed as functional, cell-based.
The test system of experiment [8] is HL-60. The experiment can be described thus: Induction of apoptosis in human HL60 cells assessed as late apoptosis level at 8 uM after 24 hrs by Annexin V-PE and 7-AAD staining based flow cytometry (reference value: 3.2%). It is filed as functional.
In experiment [9] the test system is HL-60. The experiment can be described thus: Induction of apoptosis in human HL60 cells assessed as increase in caspase-3 level at 8 uM after 24 hrs by Western blotting method. It is filed as functional, cell-based.
Experiment [10] relates to HL-60. In words: Induction of apoptosis in human HL60 cells assessed as increase in DNA fragmentation at 25 uM after 4 hrs by ethidium bromide staining and gel electrophoresis based DNA ladder analysis. It is filed as functional, cell-based.
Experiment [11] relates to HL-60. The experiment can be described thus: Induction of apoptosis in human HL60 cells assessed as late apoptosis level at 0.2 uM after 24 hrs by Annexin V-PE and 7-AAD staining based flow cytometry (reference value: 3.3%). It is filed as functional. For orientation: In flow cytometry, cells or beads pass a laser one at a time.

The source made the active and inactive calls. The calls are words filed in the database; no cut-off is given here.

By IC50 is commonly meant the concentration at which inhibition is half-maximal. `COC[C@@H](C)[C@@H](C)C(c1ccc(O)c(OC)c1)c1ccc(O)c(OC)c1`: the IC50 in experiment [1] is > 100 µM; in experiment [3], 85 µM. In addition, the inhibition of growth at 100 µM in experiment [2] is 34%.

Regarding `COc1cc(C(c2ccc(O)c(OC)c2)[C@H](CC(C)C)C(C)C)ccc1O`, the values for the IC50 in experiment [1] and in experiment [3] were 8.2 µM and 9.6 µM, respectively.

Regarding `COC[C@H](C)[C@H](C)C(c1ccc(O)c(OC)c1)c1ccc(O)c(OC)c1`, the IC50 in experiment [1] worked out at 72 µM; in experiment [3] it was 82 µM.

On to `COc1cc(C(c2ccc(O)c(OC)c2)[C@H](C)[C@H](C)CF)ccc1O`, for which the values for the IC50 in experiment [1] and in experiment [3] were 75 µM and 56 µM, respectively.

With `COC[C@H](C(C)C)C(c1ccc(O)c(OC)c1)c1ccc(O)c(OC)c1`, the results for the IC50 in experiment [1] and in experiment [3] were 76 µM and 72 µM, respectively.

On to `COc1cc(C(c2ccc(O)c(OC)c2)[C@@H](C)[C@H](C)CO)ccc1O`, for which the IC50 in experiment [1] and in [3] was > 100 µM throughout. Further, the inhibition of growth at 100 µM in [4] is 0%; in [2] it was 7%.

Regarding `COc1cc(C(c2ccc(O)c(OC)c2)[C@H](C)[C@@H](C)CO)ccc1O`, the IC50 in experiment [1] and in experiment [3] was > 100 µM each time. Also, the inhibition of growth at 100 µM in experiment [4] and in [2] was 7% in each case.

On to `CCCCC[C@H](C(C)C)C(c1ccc(O)c(OC)c1)c1ccc(O)c(OC)c1`, for which the IC50 stood at 9.2 µM in experiment [1] and 9.6 µM in experiment [3].

As to `COc1ccc(C(c2ccc(OC)c(OC)c2)[C@@H](C)[C@H](C)CO)cc1OC`, the IC50 in experiment [1] and in experiment [3] was > 100 µM in each case. The inhibition of growth at 100 µM in [4] and in experiment [2] was 0% each time.

For the molecule `COc1cc(C(c2ccc(O)c(OC)c2)[C@H](C)C(C)C)ccc1O`, the IC50 came out at 16 µM in experiment [1] and 17 µM in experiment [3].

With `COC[C@@H](C)[C@H](C)C(c1ccc(O)c(OC)c1)c1ccc(O)c(OC)c1`, the figures for the IC50 in [1] and in [3] were 58 µM and 73 µM, respectively.

In the case of `COc1cc(C(c2ccc(O)c(OC)c2)[C@H](C)[C@@H](C)CF)ccc1O`, the IC50 worked out at 34 µM in experiment [1] and 45 µM in experiment [3].

For the molecule `COc1cc(C(c2ccc(O)c(OC)c2)[C@@H](C)[C@H](C)CF)ccc1O`, the figures for the IC50 in experiment [1] and in experiment [3] were 37 µM and 32 µM, respectively.

In the case of `COc1cc(C(c2ccc(O)c(OC)c2)[C@@H](C)[C@@H](C)CO)ccc1O`, the half-maximal inhibitory concentration (IC50) in experiment [1] and in [3] was > 100 µM each time. For the same molecule, the inhibition of growth at 100 µM in experiment [4] is 3%; in experiment [2], 8%.

As to `CCCCCCCC[C@H](C(C)C)C(c1ccc(O)c(OC)c1)c1ccc(O)c(OC)c1`, the IC50 came to 3.1 µM in [1] and 3.7 µM in experiment [3]. Moreover, the outcome in experiment [5], in experiment [7], in experiment [9] and in experiment [10] was Active. Moreover, the Activity in [6] is on record as 13.5%; in [8], 33.1%.

In the case of `COc1cc(C(c2ccc(O)c(OC)c2)[C@@H](CO)C(C)C)ccc1O`, the IC50 in [1] and in experiment [3] was > 100 µM each time. In addition, the inhibition of growth at 100 µM in experiment [4] was found to be 18%; in experiment [2], 2%.

Take `COc1cc(C(c2ccc(O)c(OC)c2)[C@@H](C)C(C)C)ccc1O`: the IC50 came out at 19 µM in experiment [1] and 20 µM in experiment [3].

Consider `COc1cc(C(c2ccc(O)c(OC)c2)[C@@H](CF)C(C)C)ccc1O`, for which the IC50 stood at 41 µM in [1] and 39 µM in [3].

For the molecule `COc1ccc(C(c2ccc(OC)c(OC)c2)[C@H](C)[C@H](C)CO)cc1OC`, the IC50 in experiment [1] and in experiment [3] was > 100 µM each time. The inhibition of growth at 100 µM in experiment [4] was 28%; in experiment [2], 13%.

With `COc1cc(C(c2ccc(O)c(OC)c2)[C@H](C)[C@H](C)CO)ccc1O`, the IC50 in experiment [1] and in [3] was > 100 µM each time. For the same molecule, the inhibition of growth at 100 µM in experiment [4] was found to be 23%; in [2], 0%.

Consider `COc1cc(C(c2ccc(O)c(OC)c2)[C@H](CO)C(C)C)ccc1O`, for which the IC50 in [1] and in [3] was > 100 µM in each case. The inhibition of growth at 100 µM in experiment [4] worked out at 10%; in [2], 3%.

On to `COC[C@H](C)[C@@H](C)C(c1ccc(O)c(OC)c1)c1ccc(O)c(OC)c1`, for which the figures for the IC50 in [1] and in experiment [3] were 77 µM and 68 µM, respectively.

In the case of `CN[C@@H]1C[C@H]2O[C@@](C)([C@@H]1OC)n1c3ccccc3c3c4c(c5c6ccccc6n2c5c31)C(=O)NC4` [STAUROSPORINE], the Activity in experiment [11] was determined as 17.4%.

Take `COC[C@@H](C(C)C)C(c1ccc(O)c(OC)c1)c1ccc(O)c(OC)c1`: the IC50 in experiment [1] came out at 69 µM; in experiment [3] it was 54 µM.

`COc1cc(C(c2ccc(O)c(OC)c2)[C@H](CF)C(C)C)ccc1O`: the IC50 in experiment [1] and in [3] was 19 µM in each case.

For `COc1cc(C(c2ccc(O)c(OC)c2)[C@@H](C)[C@@H](C)CF)ccc1O`, the IC50 in experiment [1] came to 42 µM; in experiment [3] it was 38 µM.

Turning to `CC[C@H](C(C)C)C(c1ccc(O)c(OC)c1)c1ccc(O)c(OC)c1`, the IC50 in [1] was found to be 9.7 µM; in [3], 16 µM.

Regarding `COc1ccc(C(c2ccc(OC)c(OC)c2)[C@@H](C)[C@@H](C)CO)cc1OC`, the half-maximal inhibitory concentration (IC50) in [1] and in experiment [3] was > 100 µM each time. The inhibition of growth at 100 µM came out at 42% in [4] and 55% in [2].

Take `COc1ccc(C(c2ccc(OC)c(OC)c2)[C@H](C)[C@@H](C)CO)cc1OC`: the half-inhibitory concentration (IC50) in experiment [1] came out at 67 µM; in experiment [3], 47 µM.
